Reference: PubChem BioAssay AID1963443 (Molecular Pharmacology Branch, DTP, NCI, 2024)
“And” between values parts separate entries of the source, which are not always exact repeats. Equal values may be shown once. Blank lines part the entries; values can stand above or below the compound they belong to.

System: MDA-MB-231 complex spheroids, growth inhibition
Assay: Anticancer human tumor MDA-MB-231 cell line growth inhibition [Asc];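 note: spheroids exposed to compounds for 7 days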
Details: for viability, T/C: stronger effect = lower value
Summary of the method: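 Tumor cells were grown as multicellular spheroids with stromal HUVEC and mesenchymal stem cells and treated singly or in combination. Concentrations fell in half-log steps from the clinical Cmax, or from 10 microM where none was known.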

[1] = curve of first compound, second compound 0.03 µM
[2] = curve of first compound, second compound 0.0949 µM
[3] = curve of first compound, second compound 0.3 µM
[4] = curve of first compound, second compound 0.949 µM
[5] = curve of first compound, second compound 3 µM
[6] = second compound 0.03 µM, first compound 0.0316 µM
[7] = second compound 0.03 µM, first compound 0.1 µM
[8] = second compound 0.03 µM, first compound 0.316 µM
[9] = second compound 0.03 µM, first compound 1 µM
[10] = second compound 0.03 µM, first compound 3.16 µM
[11] = second compound 0.03 µM, first compound 10 µM
[12] = second compound 0.0949 µM, first compound 0.0316 µM
[13] = second compound 0.0949 µM, first compound 0.1 µM
[14] = second compound 0.0949 µM, first compound 0.316 µM
[15] = second compound 0.0949 µM, first compound 1 µM
[16] = second compound 0.0949 µM, first compound 3.16 µM
[17] = second compound 0.0949 µM, first compound 10 µM
[18] = second compound 0.3 µM, first compound 0.0316 µM
[19] = second compound 0.3 µM, first compound 0.1 µM
[20] = second compound 0.3 µM, first compound 0.316 µM
[21] = second compound 0.3 µM, first compound 1 µM
[22] = second compound 0.3 µM, first compound 3.16 µM
[23] = second compound 0.3 µM, first compound 10 µM
[24] = second compound 0.949 µM, first compound 0.0316 µM
[25] = second compound 0.949 µM, first compound 0.1 µM
[26] = second compound 0.949 µM, first compound 0.316 µM
[27] = second compound 0.949 µM, first compound 1 µM
[28] = second compound 0.949 µM, first compound 3.16 µM
[29] = second compound 0.949 µM, first compound 10 µM
[30] = second compound 3 µM, first compound 0.0316 µM
[31] = second compound 3 µM, first compound 0.1 µM
[32] = second compound 3 µM, first compound 0.316 µM
[33] = second compound 3 µM, first compound 1 µM
[34] = second compound 3 µM, first compound 3.16 µM
[35] = second compound 3 µM, first compound 10 µM

IC50 (curve of first compound, second compound 0.1 µM): > 3 µM
IC50 (curve of first compound, second compound 0.316 µM): > 3 µM
IC50 (curve of first compound, second compound 1 µM): > 3 µM
IC50 (curve of first compound, second compound 3.16 µM): > 3 µM
IC50 (curve of first compound, second compound 10 µM): > 3 µM
SMILES: CCN1C(C(=O)NC23CCC(C(=O)O)(CC2)CC3)C(c2cccc(Cl)c2F)C2(C(=O)Nc3cc(Cl)ccc32)C12CCCCC2 (configuration not stated) + Cc1c(S(C)(=O)=O)c(-c2cc(F)cc(N3CCN(c4ccc(NS(=O)(=O)c5ccc(NC(CCN6CCC(C(=O)OCCCP(=O)(O)O)CC6)CSc6ccccc6)c(S(=O)(=O)C(F)(F)F)c5)cc4)CC3)c2)c(-c2ccc(Cl)cc2)n1C(C)C
viability, T/C (second compound 0.1 µM, first compound 0.00949 µM): 90%
viability, T/C (second compound 0.1 µM, first compound 0.03 µM): 82.6%
viability, T/C (second compound 0.1 µM, first compound 0.0949 µM): 103%
viability, T/C (second compound 0.1 µM, first compound 0.3 µM): 103%
viability, T/C (second compound 0.1 µM, first compound 0.949 µM): 101%
viability, T/C (second compound 0.1 µM, first compound 3 µM): 108%
viability, T/C (second compound 0.316 µM, first compound 0.00949 µM): 104%
viability, T/C (second compound 0.316 µM, first compound 0.03 µM): 105%
viability, T/C (second compound 0.316 µM, first compound 0.0949 µM): 105%
viability, T/C (second compound 0.316 µM, first compound 0.3 µM): 106%
viability, T/C (second compound 0.316 µM, first compound 0.949 µM): 106%
viability, T/C (second compound 0.316 µM, first compound 3 µM): 94.9%
viability, T/C (second compound 1 µM, first compound 0.00949 µM): 100%
viability, T/C (second compound 1 µM, first compound 0.03 µM): 100%
viability, T/C (second compound 1 µM, first compound 0.0949 µM): 104%
viability, T/C (second compound 1 µM, first compound 0.3 µM): 100%
viability, T/C (second compound 1 µM, first compound 0.949 µM): 105%
viability, T/C (second compound 1 µM, first compound 3 µM): 82%
viability, T/C (second compound 3.16 µM, first compound 0.00949 µM): 94.5%
viability, T/C (second compound 3.16 µM, first compound 0.03 µM): 98.4%
viability, T/C (second compound 3.16 µM, first compound 0.0949 µM): 92.9%
viability, T/C (second compound 3.16 µM, first compound 0.3 µM): 91.2%
viability, T/C (second compound 3.16 µM, first compound 0.949 µM): 93.4%
viability, T/C (second compound 3.16 µM, first compound 3 µM): 70.8%
viability, T/C (second compound 10 µM, first compound 0.00949 µM): 94%
viability, T/C (second compound 10 µM, first compound 0.03 µM): 95.7%
viability, T/C (second compound 10 µM, first compound 0.0949 µM): 93.5%
viability, T/C (second compound 10 µM, first compound 0.3 µM): 93.7%
viability, T/C (second compound 10 µM, first compound 0.949 µM): 83.3%
viability, T/C (second compound 10 µM, first compound 3 µM): 57.6%

IC50 (curve of compound): 3.51 µM and 3.28 µM and 4.78 µM
SMILES: C=C(F)C(=O)N1CCN(c2nc(OCC3CCCN3C)nc3c2CCN(c2cccc4cccc(Cl)c24)C3)CC1CC#N (configuration not stated)
viability, T/C (compound 0.0316 µM): 101% (2×) and 104%
viability, T/C (compound 0.1 µM): 103% and 99.7% and 93.1%
viability, T/C (compound 0.316 µM): 103% and 98.3% and 110%
viability, T/C (compound 1 µM): 101% and 94.9% and 103%
viability, T/C (compound 3.16 µM): 54.9% and 51.6% and 77.3%
viability, T/C (compound 10 µM): 0.35% and 0.45% and 1.25%

IC50 [1]: > 10 µM
IC50 [2]: 8.44 µM
IC50 [3]: > 10 µM
IC50 [4]: > 10 µM
IC50 [5]: 0.898 µM
SMILES: C#Cc1c(F)ccc2cc(O)cc(-c3ncc4c(N5CC6CCC(C5)N6)nc(OCC56CCCN5CC(F)C6)nc4c3F)c12 (configuration not stated) + CCN1C(C(=O)NC23CCC(C(=O)O)(CC2)CC3)C(c2cccc(Cl)c2F)C2(C(=O)Nc3cc(Cl)ccc32)C12CCCCC2
viability, T/C [6]: 96.8%
viability, T/C [7]: 96.5%
viability, T/C [8]: 92.8%
viability, T/C [9]: 74.9%
viability, T/C [10]: 63.8%
viability, T/C [11]: 55.1%
viability, T/C [12]: 108%
viability, T/C [13]: 98.2%
viability, T/C [14]: 94.7%
viability, T/C [15]: 70.2%
viability, T/C [16]: 59.3%
viability, T/C [17]: 48.1%
viability, T/C [18]: 106%
viability, T/C [19]: 107%
viability, T/C [20]: 98.8%
viability, T/C [21]: 72.5%
viability, T/C [22]: 59.3%
viability, T/C [23]: 48.5%
viability, T/C [24]: 108%
viability, T/C [25]: 106%
viability, T/C [26]: 103%
viability, T/C [27]: 66.2%
viability, T/C [28]: 61.5%
viability, T/C [29]: 45.8%
viability, T/C [30]: 96.7%
viability, T/C [31]: 90.5%
viability, T/C [32]: 68.8%
viability, T/C [33]: 47.4%
viability, T/C [34]: 43.5%
viability, T/C [35]: 36.4%

IC50 [1]: > 10 µM
IC50 [2]: > 10 µM
IC50 [3]: > 10 µM
IC50 [4]: > 10 µM
IC50 [5]: > 10 µM
SMILES: C=CC(=O)N1CCN(c2nc(=O)n(-c3c(C)ccnc3C(C)C)c3nc(-c4c(O)cccc4F)c(F)cc23)C(C)C1 (configuration not stated) + CCN1C(C(=O)NC23CCC(C(=O)O)(CC2)CC3)C(c2cccc(Cl)c2F)C2(C(=O)Nc3cc(Cl)ccc32)C12CCCCC2
viability, T/C [6]: 97.4%
viability, T/C [7]: 97.9%
viability, T/C [8]: 103%
viability, T/C [9]: 104%
viability, T/C [10]: 102%
viability, T/C [11]: 106%
viability, T/C [12]: 108%
viability, T/C [13]: 107%
viability, T/C [14]: 112%
viability, T/C [15]: 109%
viability, T/C [16]: 116%
viability, T/C [17]: 120%
viability, T/C [18]: 101%
viability, T/C [19]: 103%
viability, T/C [20]: 110%
viability, T/C [21]: 118%
viability, T/C [22]: 121%
viability, T/C [23]: 108%
viability, T/C [24]: 113%
viability, T/C [25]: 113%
viability, T/C [26]: 120%
viability, T/C [27]: 118%
viability, T/C [28]: 129%
viability, T/C [29]: 121%
viability, T/C [30]: 96%
viability, T/C [31]: 107%
viability, T/C [32]: 109%
viability, T/C [33]: 114%
viability, T/C [34]: 115%
viability, T/C [35]: 112%
